Earlier results on two substances are cited in US12527745B2, “Pharmaceutical dosage form for an emulsion of simethicone and loperamide” (R.P. SCHERER TECHNOLOGIES, LLC, priority 2018, dated 2026).

For the data set the following is noted: single surfactant.

Take Polysorbate 80: the HLB is given as 15.
For the substance sorbitan mono-oleate, the HLB is recorded as 4.3.
